Measured values as given in patent publication US11739099B2 (CURIA IP HOLDINGS, LLC, priority 2014, dated 2023).

Tests used:
[1] = Solid-state change of Rifaximin α form on wet granulation with purified water; type: physicochemical; details: purified water as binding agent
[2] = Solid-state stability of the α/β ratio after dry granulation and tableting, DRX (powder); type: physicochemical; details: tablets before coating, ground in a mortar
[3] = literature studies (Cellai et al. 1983; Viscomi et al. 2008); cited from earlier work

## CO[C@H]1/C=C/O[C@@]2(C)Oc3c(C)c(O)c4c(O)c(c5c(nc6cc(C)ccn65)c4c3C2=O)NC(=O)/C(C)=C\C=C\[C@H](C)[C@H](O)[C@@H](C)[C@@H](O)[C@@H](C)[C@H](OC(C)=O)[C@@H]1C [Rifaximin α form, Rifaximin]
[1]
  Amount of Rifaximin β form afforded by wet granulation: < 50%

## Rifaximin [Rifaximin α/β polymorphic mixture 88/12]
[2]
  Relative ratio between the α/β polymorphic form after dry granulation and tableting: stable

## Rifaximin [δ]
[3]
  Absorption from the intestine: could be significantly absorbed
